Experiment: Radiometabolite analysis of nonhuman primate plasma samples
Type: in vivo, macaque
Conditions: for percentage of the parental radiotracer of total radioactivity: macaque plasma
Description: HPLC radiometabolite analysis of the macaque plasma samples collected at different time points post-injection of [^18F]FS1P1 was performed as previously reported (H. Liu, et al., Mol. Imaging Biol., 2020, 22, 1362-1369.). A male macaque (˜10 kg) was intravenously injected with ˜0.35 GBq of [^18F]FS1P1. […] Plasma (400 μL) was then collected and mixed with 1.2 mL ice-cold acetonitrile to deproteinize. […] The eluted fractions were collected at one-minute intervals for a total of 16 minutes, the radioactivity of each fraction collection was counted in an automated gamma counter (Beckman, Brea, CA), and results were corrected by background radioactive counts and physical decay. The chromatography was regenerated represented by the percentage that was calculated by radioactivity count of every minute collection divided by the total injection amount on the HPLC system and multiplied by 100.

Cc1ccccc1-c1ccc(-c2nc(-c3ccc(CN(C)CCC(=O)O)c([18F])c3)no2)cc1C(F)(F)F [[^18F]FS1P1]
radiometabolites in macaque plasma (5, 15, 30, and 60 min post injection, in words): No major metabolite was detected
percentage of the parental radiotracer of total radioactivity (5 min post-injection): 96%
percentage of the parental radiotracer of total radioactivity (15 min post-injection): 96%
percentage of the parental radiotracer of total radioactivity (30 min post-injection): 94%
percentage of the parental radiotracer of total radioactivity (60 min post-injection): 88%
